Experimental data taken from PubChem BioAssay (NCI).
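Exposure lasted 48 hours, with cells grown in 96-well plates and compounds tested at five concentrations. GI50: concentration for 50% inhibition of growth. TGI denotes the concentration required for complete inhibition of growth.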

How the values were obtained:
Assay in all cases: DTP human tumour cell line panel, 48 h
CCRF-CEM leukemia = system: CCRF-CEM leukemia
EKVX NSCLC = system: EKVX NSCLC
HCT-15 colon = system: HCT-15 colon
MOLT-4 leukemia = system: MOLT-4 leukemia
RPMI-8226 leukemia = system: RPMI-8226 leukemia
SK-MEL-2 melanoma = system: SK-MEL-2 melanoma
SNB-75 CNS = system: SNB-75 CNS
SW-620 colon = system: SW-620 colon
UACC-62 melanoma = system: UACC-62 melanoma
DU-145 prostate = system: DU-145 prostate

SMILES	TGI (CCRF-CEM leukemia)	TGI (EKVX NSCLC)	TGI (HCT-15 colon)	TGI (MOLT-4 leukemia)	TGI (RPMI-8226 leukemia)	TGI (SK-MEL-2 melanoma)	TGI (SNB-75 CNS)	TGI (SW-620 colon)	TGI (UACC-62 melanoma)	GI50 (DU-145 prostate)	TGI (DU-145 prostate)	GI50 (HCT-15 colon)	GI50 (MOLT-4 leukemia)	GI50 (SK-MEL-2 melanoma)	GI50 (SNB-75 CNS)	GI50 (SW-620 colon)	GI50 (UACC-62 melanoma)	GI50 (CCRF-CEM leukemia)	GI50 (RPMI-8226 leukemia)	GI50 (EKVX NSCLC)
NC(=S)N/N=C(/CC(=O)c1ccccc1)C(=O)Nc1ccc(Cl)c(Cl)c1	91.6 µM	> 100 µM	> 100 µM	93.7 µM	> 100 µM	> 100 µM	> 100 µM	> 100 µM	> 100 µM	–	–	–	–	–	–	–	–	–	–	–
Nc1c(C(=O)Nc2cccc([N+](=O)[O-])c2)sc2nc3c(cc12)C(O)CCC3 (configuration not stated)	–	–	> 100 µM	> 100 µM	–	> 92.2 µM	30.5 µM	> 100 µM	> 100 µM	20.5 µM	> 100 µM	2.82 µM	5.74 µM	5.4 µM	5.38 µM	3.48 µM	5.93 µM	–	–	–
COc1nc(NC2OCC(OC(C)=O)C(OC(C)=O)C2OC(C)=O)c(N=CC=Nc2c(NC3OCC(OC(C)=O)C(OC(C)=O)C3OC(C)=O)nc(OC)n(C)c2=O)c(=O)n1C (configuration not stated)	–	> 100 µM	> 100 µM	–	> 100 µM	> 100 µM	> 100 µM	> 100 µM	> 100 µM	–	–	–	–	–	–	–	–	–	–	–
CC1=NOC(=O)/C1=C/c1ccccc1O	> 100 µM	> 100 µM	> 100 µM	> 100 µM	–	> 100 µM	> 100 µM	73.9 µM	> 100 µM	–	–	–	–	–	–	–	–	–	–	–
CN(C)/C=C/c1nnc([N+](=O)[O-])s1	–	–	32.2 µM	–	–	39.3 µM	66.6 µM	33.1 µM	35.4 µM	–	30.8 µM	–	–	–	–	–	–	–	–	–
C=CCC1([C@H](C)[C@@H](OC(C)=O)c2cc(OC)c(OC)c(OC)c2)C[C@@H](OC)CCC1=O (some centres not stated)	51.7 µM	76.2 µM	40.8 µM	94.3 µM	50.3 µM	38.9 µM	36 µM	38.6 µM	34.9 µM	–	–	–	–	–	–	–	–	–	–	–
CC1CCCCc2nc3c(c(=O)n21)CCCC3 (configuration not stated)	–	–	> 100 µM	> 100 µM	–	> 100 µM	> 100 µM	> 100 µM	> 100 µM	–	–	–	–	–	–	–	–	–	–	–
CC1=NCCc2c1[nH]c1cc(O)ccc21	> 100 µM	> 100 µM	> 100 µM	> 100 µM	> 100 µM	> 100 µM	> 100 µM	> 100 µM	> 100 µM	–	–	–	–	–	–	–	–	–	–	–
Cc1ccc(-c2c(N)[n+]([O-])c3ccccc3[n+]2[O-])cc1	> 100 µM	50.2 µM	15.3 µM	> 100 µM	> 100 µM	22.9 µM	26 µM	23.3 µM	20.1 µM	–	–	–	–	–	–	–	–	–	–	–
COc1ccccc1NC(=O)CC(=O)N1N=C(C)C(N=Nc2ccc(S(N)(=O)=O)cc2)C1=O (configuration not stated)	–	> 100 µM	> 100 µM	> 100 µM	> 100 µM	> 100 µM	> 100 µM	> 100 µM	> 100 µM	–	–	–	–	–	–	–	–	–	–	–
N#C/C(=C1\OC(=O)C(c2ccc(Br)cc2)=C1O)c1ccc(Br)cc1	51.1 µM	31.6 µM	–	57.1 µM	43.6 µM	–	32.4 µM	27.3 µM	25.9 µM	–	–	–	–	–	–	–	–	–	–	–
COC(=O)CCC(NC(=S)N/N=C(\C)c1nccs1)C(=O)OC (configuration not stated)	–	> 100 µM	> 100 µM	–	> 100 µM	> 100 µM	> 100 µM	> 100 µM	> 100 µM	–	–	–	–	–	–	–	–	–	–	–
O=C1OC(=O)C(c2c[nH]c3ccccc23)=C1c1c[nH]c2ccccc12	> 25 µM	–	> 25 µM	> 25 µM	> 25 µM	> 25 µM	> 25 µM	> 25 µM	> 25 µM	> 25 µM	> 25 µM	> 25 µM	> 25 µM	> 25 µM	> 25 µM	> 25 µM	> 25 µM	> 25 µM	> 25 µM	–
CC(=O)NC(CCCNCc1ccccc1)C(=O)NCc1ccccc1 (configuration not stated)	> 100 µM	> 100 µM	> 100 µM	> 100 µM	> 100 µM	> 100 µM	> 100 µM	> 100 µM	> 100 µM	–	–	–	–	–	–	–	–	–	–	–
C[C@H](Nc1ncnc2nc[nH]c12)c1cc2cccc(Cl)c2c(=O)n1-c1ccccc1	> 100 µM	–	> 100 µM	51.1 µM	> 100 µM	72.6 µM	55.2 µM	> 100 µM	> 100 µM	26.2 µM	> 100 µM	31.5 µM	6.53 µM	19.2 µM	0.229 µM	36.5 µM	2.6 µM	3 µM	60.3 µM	–
CNC(=O)OCc1nc(SC2CCCCO2)n(C)c1COC(=O)NC (configuration not stated)	> 100 µM	> 100 µM	> 100 µM	> 100 µM	> 100 µM	> 100 µM	> 100 µM	> 100 µM	> 100 µM	–	–	–	–	–	–	–	–	–	–	–

SMILES	TGI (CCRF-CEM leukemia)	TGI (EKVX NSCLC)	TGI (HCT-15 colon)	TGI (MOLT-4 leukemia)	TGI (RPMI-8226 leukemia)	TGI (SK-MEL-2 melanoma)	TGI (SNB-75 CNS)	TGI (SW-620 colon)	TGI (UACC-62 melanoma)	GI50 (DU-145 prostate)	TGI (DU-145 prostate)	GI50 (HCT-15 colon)	GI50 (MOLT-4 leukemia)	GI50 (SK-MEL-2 melanoma)	GI50 (SNB-75 CNS)	GI50 (SW-620 colon)	GI50 (UACC-62 melanoma)	GI50 (CCRF-CEM leukemia)	GI50 (RPMI-8226 leukemia)	GI50 (EKVX NSCLC)
COc1ccc2c(c1)C(O)(C(F)(F)F)c1cc(C(=O)C(F)(F)F)c3ccccc3c1N2 (configuration not stated)	29.2 µM	34.1 µM	21 µM	33.8 µM	–	25.2 µM	36 µM	26.8 µM	15.4 µM	–	–	–	–	–	–	–	–	–	–	–
COC(=O)c1csnn1	> 100 µM	> 100 µM	> 100 µM	> 100 µM	> 100 µM	–	–	> 100 µM	> 100 µM	–	–	–	–	–	–	–	–	–	–	–
C[N+](C)(C)CC(=O)N/N=C(/Cc1nc2c3c(ccc2[nH]c1=O)C(=O)c1ccccc1C3=O)C(=O)Nc1ccc(Cl)c(Cl)c1	> 100 µM	> 100 µM	–	> 100 µM	> 100 µM	> 100 µM	–	> 100 µM	> 100 µM	–	–	–	–	–	–	–	–	–	–	–
CCOC(=O)C1=C(C)N(Cc2ccccc2)C(C)=C(C(=O)OCC)C1c1ccccc1O	69.5 µM	95.9 µM	> 100 µM	32.3 µM	–	52.7 µM	> 100 µM	> 100 µM	50.2 µM	–	–	–	–	–	–	–	–	–	–	–
CC(C)(C)OC(=O)C#CC[C@H]1CCCC1/C=C/C(O)=C1/C(=O)NC(CCCNC(=O)OC(C)(C)C)C1=O (some centres not stated)	88.5 µM	> 100 µM	–	75.9 µM	84.5 µM	34.4 µM	> 100 µM	> 100 µM	34.9 µM	–	–	–	–	–	–	–	–	–	–	–
COc1cc(/C=C2\C(=O)N(C(=O)Cc3ccccc3)N=C2C)ccc1O	> 100 µM	> 100 µM	> 100 µM	> 100 µM	> 100 µM	> 100 µM	> 100 µM	> 100 µM	–	–	–	–	–	–	–	–	–	–	–	–
CC(C)C(=O)Nc1nc2nc[nH]c2c(=O)[nH]1	> 100 µM	> 100 µM	> 100 µM	> 100 µM	> 100 µM	> 100 µM	> 100 µM	> 100 µM	> 100 µM	–	–	–	–	–	–	–	–	–	–	–
COC(=O)CCC1CCc2c(OC)ccc(O)c2C1=O (configuration not stated)	> 100 µM	> 100 µM	> 100 µM	> 100 µM	> 100 µM	> 100 µM	> 100 µM	> 100 µM	> 100 µM	–	–	–	–	–	–	–	–	–	–	–
Cc1ccc(C(=O)O/N=C2/CCC/C2=C\c2ccccc2)cc1	> 100 µM	> 100 µM	> 100 µM	> 100 µM	> 100 µM	> 100 µM	> 100 µM	> 100 µM	> 100 µM	–	–	–	–	–	–	–	–	–	–	–
N#CC(C(=O)/C(=N/NC(=O)c1ccccc1O)C(C#N)c1ccc(Cl)cc1)c1ccc(Cl)cc1 (configuration not stated)	> 100 µM	36.9 µM	37.7 µM	–	53 µM	30.1 µM	–	29.1 µM	–	–	–	–	–	–	–	–	–	–	–	–
Cc1ccncc1.[O]=[Ge].[O]=[Ge].[O]=[Ge].[O]=[Ge].[O]=[Ge].[O]=[Ge][OH].[O]=[Ge][OH]	> 100 µM	> 100 µM	> 100 µM	> 100 µM	> 100 µM	> 100 µM	> 100 µM	> 100 µM	> 100 µM	–	–	> 100 µM	> 100 µM	> 100 µM	> 100 µM	> 100 µM	> 100 µM	> 100 µM	> 100 µM	> 100 µM
CCCCCCCCCCCCOC(=S)NCCCC	80.4 µM	47.8 µM	37.2 µM	36 µM	34.2 µM	44.2 µM	95.1 µM	35.5 µM	40.6 µM	–	–	–	–	–	–	–	–	–	–	–
O=C([O-])c1ccccc1Nc1ccccn1.O=C([O-])c1ccccc1Nc1ccccn1.[Ni+2]	> 100 µM	> 100 µM	> 100 µM	> 100 µM	> 100 µM	> 100 µM	–	> 100 µM	> 100 µM	–	–	> 100 µM	89.8 µM	> 100 µM	–	> 100 µM	> 100 µM	> 100 µM	> 100 µM	31.8 µM
COc1ccccc1NC(=O)C1=C(C)NC(C)=C(C(=O)Nc2ccccc2OC)C1c1ccccc1F	> 100 µM	> 100 µM	> 100 µM	> 100 µM	> 100 µM	> 100 µM	62.4 µM	> 100 µM	> 100 µM	–	–	–	–	–	–	–	–	–	–	–
CN(C(=O)C12C3C4C5C3C1(C(=O)O)C5C42)C(C)(C)C (configuration not stated)	> 100 µM	> 100 µM	> 100 µM	> 100 µM	> 100 µM	> 100 µM	> 100 µM	60.8 µM	> 100 µM	–	–	–	–	–	–	–	–	–	–	–
CCCc1[nH]nc(CCC(=O)N(Cc2ccccc2)Cc2ccccc2)c1CC	> 100 µM	> 100 µM	> 100 µM	> 100 µM	> 100 µM	> 100 µM	> 100 µM	> 100 µM	> 100 µM	–	–	–	–	–	–	–	–	–	–	–
